Assay: Antiinflammatory activity in mouse RAW264.7 cells assessed as inhibition of LPS-induced iNOS activity incubated for 30 mins prior to LPS challenge measured after 24 hrs by Griess assay

Structure (SMILES)	IC50
O=c1oc2ccccc2n1CCCCCN1CCN(CCCCCn2c(=O)oc3ccccc32)CC1	4.43 µM
O=c1sc2ccccc2n1CCCCCCN1CCN(CCCCCCn2c(=O)sc3ccccc32)CC1	0.28 µM
O=c1oc2ccccc2n1CCCCCN1CCN(CCn2c(=O)oc3ccccc32)CC1	4.98 µM
O=c1oc2ccccc2n1CCCCCCN1CCN(CCCCCn2c(=O)oc3ccccc32)CC1	2.9 µM
O=c1sc2ccccc2n1CCCCCN1CCN(CCCCCn2c(=O)sc3ccccc32)CC1	0.41 µM
O=c1sc2ccccc2n1CCCCCCN1CCN(CCn2c(=O)sc3ccccc32)CC1	3.43 µM
O=c1sc2ccccc2n1CCCCN1CCN(CCCn2c(=O)sc3ccccc32)CC1	4.51 µM
O=c1sc2ccccc2n1CCCCCCN1CCN(CCCCn2c(=O)sc3ccccc32)CC1	0.51 µM
O=c1sc2ccccc2n1CCCN1CCN(CCCn2c(=O)sc3ccccc32)CC1	4.62 µM
c1ccc2sc(SCCCCN3CCN(CCCCSc4nc5ccccc5s4)CC3)nc2c1	0.41 µM
O=c1oc2ccccc2n1CCCCCCN1CCN(CCn2c(=O)oc3ccccc32)CC1	4.66 µM

Further lines, results first:

IC50	Structure (SMILES)
4.54 µM	O=c1oc2ccccc2n1CCCCCN1CCN(CCCCn2c(=O)oc3ccccc32)CC1
4.22 µM	O=c1oc2ccccc2n1CCCCCCN1CCN(CCCCCCn2c(=O)oc3ccccc32)CC1
2.57 µM	O=c1sc2ccccc2n1CCCCCCN1CCN(CCCn2c(=O)sc3ccccc32)CC1
4.5 µM	O=c1oc2ccccc2n1CCCCCCN1CCN(CCCn2c(=O)oc3ccccc32)CC1
1.12 µM	c1ccc2oc(SCCCCN3CCN(CCCCSc4nc5ccccc5o4)CC3)nc2c1
4.51 µM	O=c1sc2ccccc2n1CCCCCN1CCN(CCn2c(=O)sc3ccccc32)CC1
2.55 µM	O=c1sc2ccccc2n1CCCCCN1CCN(CCCn2c(=O)sc3ccccc32)CC1
0.29 µM	O=c1sc2ccccc2n1CCCCCCN1CCN(CCCCCn2c(=O)sc3ccccc32)CC1
4.86 µM	O=c1oc2ccccc2n1CCCCCN1CCN(CCCn2c(=O)oc3ccccc32)CC1
1.77 µM	O=c1oc2ccccc2n1CCCCCCN1CCN(CCCCn2c(=O)oc3ccccc32)CC1

Source: BindingDB's records for doi:10.1016/j.bmc.2015.04.057 (Beni-Suef University, 2015)
